Source: patent publication US6803387B1, “Treatment of neuropathic pain or fibromyalgia” (Abbott GmbH & Co. KG, priority 1999, dated 2004)

Tested on: neuropathic pain
Assay: oral administration to a patient with neuropathic pain
Assay type: in vivo, human
Settings: one patient, 10 mg orally once daily for weight loss; pain returned on discontinuation, disappeared again on re-administration
Procedure: Sibutramine 10 mg was administered orally once daily for weight loss to a patient who also had neuropathic pain. The neuropathic pain disappeared. Therapy with sibutramine was discontinued and the neuropathic pain returned. When sibutramine was then administered again, the neuropathic pain disappeared.

CC(C)CC(N(C)C)C1(c2ccc(Cl)cc2)CCC1 (stereo not shown) [Sibutramine, N,N-dimethyl-1-[1-(4-chlorophenyl)cyclobutyl]-3-methylbutylamine]
neuropathic pain: disappeared
